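Interpolation was linear, between the two tested concentrations surrounding the appropriate level; five concentrations were tested over 48 hours in 96-well plates. Here, GI50 denotes the concentration required for 50% inhibition of growth.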 Calls of active or inactive are those of the source. Rule as the data show it: active = GI50 up to about 1.1 µM and inactive = higher.
What was measured:
Test in all cases: DTP human tumour cell line panel, 48 h
[1] = system: SK-MEL-5
[2] = system: SF-295
[3] = system: RPMI-8226
[4] = system: A498
[5] = system: SF-268
[6] = system: BT-549
[7] = system: MDA-MB-231
[8] = system: EKVX
[9] = system: HL-60
[10] = system: M14
[11] = system: MDA-N
[12] = system: HOP-62
[13] = system: T47D
[14] = system: A549
[15] = system: PC-3
[16] = system: SK-MEL-28
[17] = system: RXF 393
[18] = system: NCI-H460
[19] = system: CCRF-CEM

| SMILES | GI50 [1] | GI50 [2] | GI50 [3] | GI50 [4] | GI50 [5] | GI50 [6] | GI50 [7] | GI50 [8] | GI50 [9] | GI50 [10] | GI50 [11] | GI50 [12] | GI50 [13] | GI50 [14] | GI50 [15] | GI50 [16] | GI50 [17] | GI50 [18] | GI50 [19] |
| --- | --- | --- | --- | --- | --- | --- | --- | --- | --- | --- | --- | --- | --- | --- | --- | --- | --- | --- | --- |
| CC(C)CC1c2[nH]c3ccccc3c2C[C@H]2C(=O)NC(CCCCNC(=O)OC(C)(C)C)C(=O)N12 (stereo partly specified) | 33.2 µM (inactive) | 12.3 µM (inactive) | 18.7 µM (inactive) | 35.4 µM (inactive) | 21.4 µM (inactive) | 25.2 µM (inactive) | 17 µM (inactive) | 51.9 µM (inactive) | 21.7 µM (inactive) | 35.3 µM (inactive) | 37.5 µM (inactive) | 56.2 µM (inactive) | 0.449 µM (active) | 33.7 µM (inactive) | 17.9 µM (inactive) | 65.6 µM (inactive) | 6.62 µM (inactive) | – | – |
| COc1ccc(C2=C(N)c3c(OC)cccc3C2=O)cc1 | – | 86.1 µM (inactive) | > 100 µM (inactive) | > 100 µM (inactive) | 37.8 µM (inactive) | 48.6 µM (inactive) | 96.6 µM (inactive) | > 100 µM (inactive) | > 100 µM (inactive) | 97.5 µM (inactive) | > 100 µM (inactive) | 22.5 µM (inactive) | > 100 µM (inactive) | – | > 100 µM (inactive) | > 100 µM (inactive) | 9.66 µM (inactive) | > 100 µM (inactive) | > 100 µM (inactive) |
| CCOC(=O)c1nc2ccccc2nc1Oc1cc(OC)c(OC)c(OC)c1 | > 100 µM (inactive) | 45.2 µM (inactive) | > 100 µM (inactive) | > 100 µM (inactive) | > 100 µM (inactive) | > 100 µM (inactive) | 35 µM (inactive) | > 100 µM (inactive) | > 100 µM (inactive) | > 100 µM (inactive) | > 100 µM (inactive) | 31.4 µM (inactive) | > 100 µM (inactive) | > 100 µM (inactive) | > 100 µM (inactive) | > 100 µM (inactive) | – | > 100 µM (inactive) | > 100 µM (inactive) |
| [N-]=[N+]=NC1=C(N=[N+]=[N-])c2cccc3cccc(c23)C1=O | > 100 µM (inactive) | > 100 µM (inactive) | > 100 µM (inactive) | > 100 µM (inactive) | > 100 µM (inactive) | > 100 µM (inactive) | 60.1 µM (inactive) | > 100 µM (inactive) | – | > 100 µM (inactive) | < 0.01 µM (active) | 49.7 µM (inactive) | > 100 µM (inactive) | > 100 µM (inactive) | > 100 µM (inactive) | – | 65.6 µM (inactive) | 58.9 µM (inactive) | 67.9 µM (inactive) |
| CCOP(=O)(OCC)/C(C#N)=C/c1c[nH]c2ccccc12 | > 100 µM (inactive) | > 100 µM (inactive) | 90.4 µM (inactive) | > 100 µM (inactive) | > 100 µM (inactive) | 57.9 µM (inactive) | > 100 µM (inactive) | > 100 µM (inactive) | > 100 µM (inactive) | > 100 µM (inactive) | > 100 µM (inactive) | > 100 µM (inactive) | > 100 µM (inactive) | > 100 µM (inactive) | > 100 µM (inactive) | > 100 µM (inactive) | > 100 µM (inactive) | > 100 µM (inactive) | – |
| CN(Cc1cnc2nc(N)nc(N)c2n1)c1ccc(C(=O)NC2CCCCC2)cc1 | 12.3 µM (inactive) | 32.4 µM (inactive) | > 100 µM (inactive) | 24.4 µM (inactive) | 19 µM (inactive) | 23.2 µM (inactive) | 33.6 µM (inactive) | 53.6 µM (inactive) | 23.7 µM (inactive) | 10.6 µM (inactive) | 7.69 µM (inactive) | 34.5 µM (inactive) | 87.1 µM (inactive) | – | 7.64 µM (inactive) | – | 33 µM (inactive) | 20.1 µM (inactive) | 36.7 µM (inactive) |
| Cc1cc(S(=O)(=O)N/C(=C(\C#N)C(=O)c2ccc(Cl)cc2)[n+]2ccc(N(C)C)cc2)c([S-])cc1Cl | > 100 µM (inactive) | 62.2 µM (inactive) | 45.2 µM (inactive) | 12.3 µM (inactive) | 76.6 µM (inactive) | > 100 µM (inactive) | > 100 µM (inactive) | – | > 100 µM (inactive) | 41.9 µM (inactive) | > 100 µM (inactive) | 38.1 µM (inactive) | > 100 µM (inactive) | 37.6 µM (inactive) | 36.6 µM (inactive) | > 100 µM (inactive) | > 100 µM (inactive) | 42.6 µM (inactive) | 64 µM (inactive) |
| O=C(Nc1nncs1)NS(=O)(=O)n1c(=S)sc2ccccc21 | > 100 µM (inactive) | > 100 µM (inactive) | > 100 µM (inactive) | > 100 µM (inactive) | > 100 µM (inactive) | > 100 µM (inactive) | > 100 µM (inactive) | 72.6 µM (inactive) | 51.9 µM (inactive) | > 100 µM (inactive) | > 100 µM (inactive) | > 100 µM (inactive) | 88.9 µM (inactive) | > 100 µM (inactive) | > 100 µM (inactive) | > 100 µM (inactive) | > 100 µM (inactive) | > 100 µM (inactive) | 24.9 µM (inactive) |

Source: ChEMBL document CHEMBL1201862, “PubChem BioAssay data set” (2004)
